Results on six compounds are retold here after DBAASP.

Among the test systems are Escherichia coli UB1005; Candida albicans MDM8; Escherichia coli SBS 363; Micrococcus luteus A270.
What all share (experiment): ≥ marks a high value that may be exact or a test limit, other limits are often not marked, values filed in µg/mL are converted to µM
For assay [1], the system named is Escherichia coli ATCC 25922.
Assay [2] deals with Lacticaseibacillus rhamnosus 1.0385.
Assay [3] has as its system Lacticaseibacillus rhamnosus 1.0386.
Assay [4] deals with Lacticaseibacillus rhamnosus 1.0911.
The subject of assay [5] is Lacticaseibacillus rhamnosus 1.0925.
The subject of assay [6] is Lacticaseibacillus rhamnosus 7469.
Assay [7] relates to Lactiplantibacillus plantarum 8014.
Assay [8] concerns Pseudomonas aeruginosa ATCC 27853.
In assay [9] the test system is Staphylococcus aureus ATCC 29213.
Assay [10] relates to Staphylococcus aureus ATCC 43300.
In assay [11] the test system is Staphylococcus epidermidis ATCC 12228.
Assay [12] concerns Pseudomonas aeruginosa 21328.
Assay [13] deals with Pseudomonas aeruginosa 25349.
Assay [14] relates to Pseudomonas aeruginosa CICC 10419.
In assay [15] the test system is Pseudomonas aeruginosa CICC 11411.
The subject of assay [16] is Pseudomonas aeruginosa CICC 11421.
In assay [17] the test system is Pseudomonas aeruginosa CICC 11431.
For assay [18], the system named is Pseudomonas aeruginosa CICC 21625.
For assay [19], the system named is Pseudomonas aeruginosa CICC 21630.
Assay [20] relates to Bacillus megaterium ATCC 10778.
The subject of assay [21] is Bacillus subtilis ATCC 6633.
Assay [22] has as its system Candida tropicalis IOC 4560.
The subject of assay [23] is Enterobacter cloacae beta-12.
Assay [24] deals with Pseudomonas aeruginosa NCIB 10421.
Assay [25] concerns Serratia marcescens ATCC 4112.
In assay [26] the test system is Acinetobacter baumannii ATCC 17978.
Assay [27] deals with Escherichia coli NCTC 12923.
In assay [28] the test system is Klebsiella pneumoniae NCTC 13368.
Assay [29] deals with Pseudomonas aeruginosa NCTC 13437.
The test system of assay [30] is Pseudomonas aeruginosa PAO1.
Assay [31] deals with Staphylococcus aureus ATCC 9144.
The subject of assay [32] is Staphylococcus aureus USA 300.

≈ marks a conversion by molar mass, not a printed value. Where only a bound is given, the exact number is not on record here.

Broadly, the MIC is the least concentration at which growth counts as inhibited. Read a low MIC as inhibition by little substance. Regarding `NC(=O)[C@H](CCCN=C(N)N)NC(=O)[C@H](CCCN=C(N)N)NC(=O)[C@H](Cc1c[nH]c2ccccc12)NC(=O)[C@H](CS)NC(=O)[C@H](Cc1c[nH]c2ccccc12)NC(=O)[C@H](Cc1c[nH]c2ccccc12)NC(=O)[C@H](Cc1c[nH]c2ccccc12)NC(=O)[C@H](CS)NC(=O)[C@H](Cc1c[nH]c2ccccc12)NC(=O)[C@H](CCCN=C(N)N)NC(=O)[C@@H](N)CCCN=C(N)N` [RRWCWWWCWRR], the MIC is over 64 µM in assay [1]; 16 µM (≈ 28.5 µg/mL) against Escherichia coli UB1005; at least 64 µM in [2]; 16 µM (≈ 28.5 µg/mL) in assay [3]; at least 64 µM in assay [4]; at least 64 µM in assay [5]. Also, the minimal inhibitory concentration (MIC) in assay [6] is at least 64 µM; in assay [7], 8 µM (≈ 14.2 µg/mL); in assay [8], 8 µM (≈ 14.2 µg/mL); in assay [9], 8 µM (≈ 14.2 µg/mL); in assay [10] it was 4 µM (≈ 7.12 µg/mL); in assay [11], 8 µM (≈ 14.2 µg/mL).

For the compound `CC(C)C[C@H](NC(=O)[C@H](CCCN=C(N)N)NC(=O)[C@H](CCCN=C(N)N)NC(=O)[C@H](CC(C)C)NC(=O)[C@H](CCCN=C(N)N)NC(=O)[C@H](CCCN=C(N)N)NC(=O)[C@H](CCCN=C(N)N)NC(=O)[C@H](Cc1c[nH]c2ccccc12)NC(=O)[C@H](Cc1c[nH]c2ccccc12)NC(=O)[C@H](Cc1c[nH]c2ccccc12)NC(=O)[C@H](CCCN=C(N)N)NC(=O)[C@H](CCCN=C(N)N)NC(=O)[C@H](CCCN=C(N)N)NC(=O)[C@H](CC(C)C)NC(=O)[C@H](CCCN=C(N)N)NC(=O)[C@H](CCCN=C(N)N)NC(=O)[C@@H](N)CC(C)C)C(N)=O` [LRRLRRRWWWRRRLRRL], the MIC in assay [1] amounted to 1.54 µM (≈ 4 µg/mL); in [12] it was 1.54 µM (≈ 4 µg/mL); in assay [13], 1.54 µM (≈ 4 µg/mL); in assay [14] it was 3.09 µM (≈ 8 µg/mL); in [15] it was 1.54 µM (≈ 4 µg/mL); in [16], 3.09 µM (≈ 8 µg/mL). Further, the MIC in assay [17] amounted to 1.54 µM (≈ 4 µg/mL); in [18], 3.09 µM (≈ 8 µg/mL); in assay [19], 1.54 µM (≈ 4 µg/mL); in assay [9], 3.09 µM (≈ 8 µg/mL).

Regarding `CC(C)C[C@H](NC(=O)[C@H](CCCN=C(N)N)NC(=O)[C@H](CCCN=C(N)N)NC(=O)[C@H](CC(C)C)NC(=O)[C@H](CCCN=C(N)N)NC(=O)[C@H](CCCN=C(N)N)NC(=O)[C@H](CCCN=C(N)N)NC(=O)[C@H](Cc1c[nH]c2ccccc12)NC(=O)[C@H](CCCN=C(N)N)NC(=O)[C@H](CCCN=C(N)N)NC(=O)[C@H](CCCN=C(N)N)NC(=O)[C@H](CC(C)C)NC(=O)[C@H](CCCN=C(N)N)NC(=O)[C@H](CCCN=C(N)N)NC(=O)[C@@H](N)CC(C)C)C(N)=O` [LRRLRRRWRRRLRRL], the MIC in assay [1] came to 7.21 µM (≈ 16 µg/mL); in assay [12], 14.4 µM (≈ 32 µg/mL); in assay [13], 3.61 µM (≈ 8 µg/mL); in assay [8] it was 7.21 µM (≈ 16 µg/mL); in assay [14] it was 14.4 µM (≈ 32 µg/mL); in assay [15], 14.4 µM (≈ 32 µg/mL). For the same compound, the MIC in [16] worked out at 14.4 µM (≈ 32 µg/mL); in assay [17] it was 7.21 µM (≈ 16 µg/mL); in assay [18], 7.21 µM (≈ 16 µg/mL); in assay [19], 7.21 µM (≈ 16 µg/mL); in assay [9], 7.21 µM (≈ 16 µg/mL).

With `CC[C@H](C)[C@H](N)C(=O)N[C@@H](CC(C)C)C(=O)NCC(=O)N[C@@H](CCCCN)C(=O)N[C@H](C(=O)N[C@@H](Cc1c[nH]c2ccccc12)C(=O)N[C@@H](CCC(=O)O)C(=O)N1CCC[C@H]1C(=O)N[C@H](C(=O)N[C@@H](CCCCN)C(=O)N[C@@H](CO)C(=O)N[C@@H](CC(C)C)C(=O)N[C@@H](Cc1ccccc1)C(N)=O)[C@@H](C)CC)[C@@H](C)CC` [ILGKIWEPIKSLF], the MIC in assay [20] is 3.13 µM (≈ 4.83 µg/mL); in assay [21], 25 µM (≈ 38.6 µg/mL); against Candida albicans MDM8 it was at least 50 µM; in assay [22], 12.5 µM (≈ 19.3 µg/mL); in [23] it was at least 50 µM; with Escherichia coli SBS 363, at least 50 µM. Also, the MIC is 12.5 µM (≈ 19.3 µg/mL) against Micrococcus luteus A270, at least 50 µM in assay [24], 3.13 µM (≈ 4.83 µg/mL) in assay [25] and 50 µM (≈ 77.1 µg/mL) in assay [9].

With `CC[C@H](C)[C@H](NC(=O)[C@H](CCCCN)NC(=O)[C@H](CCC(=O)O)NC(=O)[C@H](Cc1c[nH]c2ccccc12)NC(=O)[C@H](Cc1ccccc1)NC(=O)[C@H](CCCCN)NC(=O)CNC(=O)[C@H](CC(C)C)NC(=O)[C@H](C)N)C(=O)N[C@@H](CCCCN)C(=O)N[C@@H](CO)C(=O)N[C@@H](CC(C)C)C(=O)N[C@@H](Cc1ccccc1)C(N)=O` [ALGKFWEKIKSLF], the MIC was found to be 2.55 µM (≈ 4 µg/mL) in assay [26]; 0.78 µM (≈ 1.22 µg/mL) in assay [20]; 0.78 µM (≈ 1.22 µg/mL) in assay [21]; 3.13 µM (≈ 4.9 µg/mL) in the assay with Candida albicans MDM8; 0.78 µM (≈ 1.22 µg/mL) in assay [22]; 6.25 µM (≈ 9.79 µg/mL) in [23]. Besides, the MIC in assay [27] is 5.11 µM (≈ 8 µg/mL); against Escherichia coli SBS 363, 1.56 µM (≈ 2.44 µg/mL); in assay [28] it was 10.2 µM (≈ 16 µg/mL); in the assay with Micrococcus luteus A270, 0.78 µM (≈ 1.22 µg/mL); in [24] it was 12.5 µM (≈ 19.6 µg/mL); in [29], at least 40.8 µM. Besides, the MIC in assay [30] is over 81.7 µM; in assay [25], 0.36 µM (≈ 0.564 µg/mL); in assay [9] it was 3.13 µM (≈ 4.9 µg/mL); in assay [31] it was 2.55 µM (≈ 4 µg/mL); in [32], 10.2 µM (≈ 16 µg/mL).

As to `C[C@@H](O)[C@H](NC(=O)[C@H](Cc1c[nH]c2ccccc12)NC(=O)[C@H](Cc1c[nH]c2ccccc12)NC(=O)[C@H](Cc1c[nH]c2ccccc12)NC(=O)[C@@H](NC(=O)[C@H](Cc1c[nH]c2ccccc12)NC(=O)[C@H](CCCN=C(N)N)NC(=O)[C@@H](N)CCCN=C(N)N)[C@@H](C)O)C(=O)N[C@@H](Cc1c[nH]c2ccccc12)C(=O)N[C@@H](CCCN=C(N)N)C(=O)N[C@@H](CCCN=C(N)N)C(N)=O` [RRWTWWWTWRR], the minimum inhibitory concentration (MIC) is 2 µM (≈ 3.55 µg/mL) against Escherichia coli UB1005; at least 64 µM in [2]; at least 64 µM in [3]; at least 64 µM in assay [4]; at least 64 µM in [5]; at least 64 µM in assay [6]. Further, the MIC was at least 64 µM in assay [7], 4 µM (≈ 7.1 µg/mL) in [8], 4 µM (≈ 7.1 µg/mL) in assay [10] and 2 µM (≈ 3.55 µg/mL) in assay [11].
